Assay: Pharmacokinetic study in rats after oral administration of SYD extract and its single and combined TCM extracts (UPLC-MS/MS of plasma)
Conditions: male, Sprague-Dawley, rat, plasma, po, n = 6; for AUC(0-inf) / Cmax / MRT last / MRT inf / Tmax / AUC(0-t): rat plasma; for MRT last: MRT(0–t); for MRT inf: MRT(0–∞); for half-life: t1/2, rat plasma
[1] = 2.14 g·kg^−1 (extract), oral LJ + GU extract
[2] = 2.15 g/kg, oral LJ extract 2.15 g/kg
[3] = 3.29 g·kg^−1 (extract), oral LJ + AS extract
[4] = 3.29 g·kg^−1 extract, oral LJ + AS extract
[5] = 4.01 g·kg^−1 (extract), oral LJ + AS + GU extract
[6] = 4.5 g·kg^−1 (extract), oral LJ + SN extract
[7] = 4.5 g·kg^−1 extract, oral LJ + SN extract
[8] = 4.73 g/kg, oral LJ + SN + GU extract 4.73 g/kg
[9] = 5.43 g/kg, oral LJ + SN + AS extract 5.43 g/kg
[10] = 8.25 g/kg, oral SYD extract 8.25 g/kg

Protocol: Pieces of LJ, SN, AS and GU were weighed according to the proportion of 3:3:2:1 with appropriate amounts. The mixed pieces were crushed and decocted two times (60 min each time) with water (1:10 w/v) after being soaked for 60 min. The decoctions were then combined and condensed to the concentration of 0.5 g/mL, after which 95% ethanol was slowly added to the concentrate until a final ethanol concentration of 70% was reached. The SYD solution was set at room temperature overnight and then was filtered. The solvent was recovered, and the residue was dried under reduced pressure. A certain amount of the water extract of SYD was weighed and then dissolved with purified water for intragastric (oral) administration solution. The single herbs and different combination groups such as LJ, SN, AS, GU, LJ + SN, LJ + AS, LJ + GU, SN + AS, SN + GU, AS + GU, LJ + SN + AS, LJ + SN + GU, LJ + AS + GU and SN + AS + GU were prepared according to the procedure of SYD.
Male Sprague-Dawley (SD) rats (body weight 250 ± 10 g) were supplied by the SPF (Beijing) Biotechnology Co., Ltd. (Certificate No.: SCXK 2016-0002, Beijing, China). The animals were maintained in controlled conditions (temperature 20–25 °C, relative humidity 55–60% and 12-h light/12-h dark cycle) with free access to standard laboratory food and water for seven days of acclimation and then fasted for 12 h before each experiment but allowed to drink freely during this time.
Ninety male SD rats were randomly separated into 15 groups and administered a dosage of extract via gastric gavage once per day; detailed information about the oral daily dose of SYD extract and the corresponding single and combined TCMs (LJ, SN, AS, GU, LJ + SN, LJ + AS, LJ + GU, SN + AS, SN + GU, AS + GU, LJ + SN + AS, LJ + SN + GU, LJ + AS + GU, SN + AS + GU and SYD) is listed in Table 4.
Each plasma sample (200 μL) with 50 μL IS solution added was spiked into 100 μL 1% formic acid distilled water solution and then vortexed for 1 min. Protein was precipitated by adding 600 μL of methanol to the mixture. After being vortexed and sonicated, the samples were centrifuged at 25,000 r/min, 4 °C for 10 min. The supernatant of each sample was transferred to a new 2-mL centrifuge tube and evaporated to dryness by N2 at 40 °C. Finally, the residue was dissolved in 100 μL methanol–water (1:1, v/v), followed by centrifugation at 30,000 r/min, 4 °C for 10 min, and 10-μL supernatant aliquots were injected into the UPLC-MS/MS system for analysis.
The SYD was decomposed into 15 groups of compatibility combinations (LJ, SN, AS, GU, LJ + SN, LJ + AS, LJ + GU, SN + AS, SN + GU, AS + GU, LJ + SN + AS, LJ + SN + GU, LJ + AS + GU, SN + AS + GU and SYD). The 15 combinations were weighed according to the proportion of 3:3:2:1 with appropriate amounts and prepared by the method described in “Section 3.2”. Six male SD rats (body weight 250 ± 10 g) of each compatibility group were used in the pharmacokinetic study. After 12-h fast, rats of the different groups were orally administered the respective extract dissolved in saline (Table 4). Venous blood (0.45 mL) was obtained from the orbit vein and collected in heparin-pretreated polypropylene centrifuge tubes at 0.083 h, 0.17 h, 0.25 h, 0.50 h, 0.75 h, 1.0 h, 1.5 h, 2.0 h, 3.0 h, 4.0 h, 6.0 h, 8.0, 12 h and 24 h post-dose. The plasma was separated by centrifugation at 8000 r/min for 10 min and then stored at −20 °C until analysis. The amount of each analyte in the plasma was estimated by UPLC-MS/MS analysis as described in Section 3.5.
Non-compartmental methods using Phoenix WinNonlin 7.0 software provided by the Beijing University of Chinese Medicine were used to analyze plasma concentration versus time profiles and to estimate the following pharmacokinetic parameters: terminal elimination half-lives (t1/2), area under the plasma concentration versus time curve from zero to last sampling time (AUC), and the mean residence time (MRT).

- AUC(0-inf) [1]: 5510 ± 2000 ng·h/mL
- Cmax [1]: 690 ± 440 ng/mL
- MRT last [1]: 8.17 ± 0.62 h
- MRT inf [1]: 88.5 ± 42.1 h
- Tmax [1]: 1.25 ± 0.59 h
- half-life [1]: 484 ± 219 min
- AUC(0-t) (2.14 g·kg^−1 extract, oral LJ + GU extract): 1600 ± 70 ng·h/mL
- AUC(0-t) [2]: 1520 ± 110 ng·h/mL
- AUC(0-inf) [2]: 1670 ± 340 ng·h/mL
- Cmax [2]: 1140 ± 520 ng/mL
- MRT last [2]: 3.65 ± 1.03 h
- MRT inf [2]: 6.74 ± 6 h
- Tmax [2]: 1.25 ± 0.59 h
- half-life [2]: 403 ± 251 min
- Cmax [3]: 660 ± 350 ng/mL
- MRT last [3]: 7.93 ± 1.33 h
- MRT inf [3]: 80.9 ± 41.5 h
- Tmax [3]: 1.33 ± 0.52 h
- half-life [3]: 473 ± 145 min
- AUC(0-t) [4]: 1720 ± 310 ng·h/mL
- AUC(0-inf) [4]: 5400 ± 1940 ng·h/mL
- AUC(0-t) [5]: 1660 ± 120 ng·h/mL
- AUC(0-inf) [5]: 5350 ± 1940 ng·h/mL
- Cmax [5]: 540 ± 170 ng/mL
- MRT last [5]: 8.06 ± 0.78 h
- MRT inf [5]: 81.9 ± 41.3 h
- Tmax [5]: 1.5 ± 0.45 h
- half-life [5]: 475 ± 130 min
- MRT last [6]: 7.79 ± 1.38 h
- MRT inf [6]: 80 ± 40.2 h
- Tmax [6]: 1.54 ± 0.56 h
- half-life [6]: 563 ± 156 min
- AUC(0-t) [7]: 1790 ± 440 ng·h/mL
- AUC(0-inf) [7]: 5470 ± 2060 ng·h/mL
- Cmax [7]: 680 ± 100 ng/mL
- AUC(0-t) [8]: 1840 ± 450 ng·h/mL
- AUC(0-inf) [8]: 5510 ± 2020 ng·h/mL
- Cmax [8]: 720 ± 450 ng/mL
- MRT last [8]: 7.72 ± 1.48 h
- MRT inf [8]: 79.3 ± 40.8 h
- Tmax [8]: 1.5 ± 0.45 h
- half-life [8]: 410 ± 127 min
- AUC(0-t) [9]: 1160 ± 780 ng·h/mL
- AUC(0-inf) [9]: 1180 ± 770 ng·h/mL
- Cmax [9]: 660 ± 483 ng/mL
- MRT last [9]: 2.5 ± 0.7 h
- MRT inf [9]: 4.07 ± 3.93 h
- Tmax [9]: 1.5 ± 0.45 h
- half-life [9]: 375 ± 257 min
- AUC(0-t) [10]: 1980 ± 1380 ng·h/mL
- AUC(0-inf) [10]: 2170 ± 1400 ng·h/mL
- Cmax [10]: 770 ± 460 ng/mL
- MRT last [10]: 4.71 ± 1.34 h
- MRT inf [10]: 8.87 ± 8.1 h
- half-life [10]: 447 ± 203 min
SMILES: COC(=O)C1=CO[C@@H](O[C@@H]2O[C@H](CO)[C@@H](O)[C@H](O)[C@H]2O)[C@@H]2[C@@H](C)[C@@H](O)C[C@H]12 [Loganin, loganin]

Source: PMC6150365, “Simultaneous Determination of Seven Components in Rat Plasma by the UPLC-MS/MS Method and Application of Pharmacokinetic Studies to SimiaoYong’an Decoction” (Molecules : A Journal of Synthetic Chemistry and Natural …, 2017)
